How the values were obtained:
JAK1, 2 = assay: In vitro cell assay, JAK1, 2 (STAT phosphorylation ELISA); assay type: cell-based; conditions: read-out: IC50, Cell Biology JAK1, 2
Experimental: UT-7/EPO cell is an erythroleukemic cell line which expresses an EPO receptor, and is frequently used in many previous studies as a model to assess EPO-induced STAT5 phosphorylation mediated by JAK1 and JAK2 activity. Accordingly, in order to evaluate the activity of JAK1 and JAK2, UT-7/EPO cells were prepared.
The test material was dissolved in DMSO, prepared at 10 mM, divided by 20 μL each, and stored at −20° C.
• EPO: 2000 U/0.5 mL of stock was divided by 50 μL each and stored under refrigeration. • IL-2: 200 μg/ml of stock was prepared, divided by 5 μL each, and stored, and then treated at 2 ng/ml. (IL-2 1 μg/ml=13000 U/ml) • IFN-alphaB2: […] of stock was diluted and used, and then treated to reach 30000 U/ml.
• UT-7/EPO cell assay: MEM-alpha (Gibco, cat #12561-056) was prepared to contain 5% FBS and 1% P/S before use. • NK-92 cell assay: A preparation was made to contain HBSS, 1% FBS and 1% P/S before use. • U2OS cell assay: A preparation was made to contain HBSS, 1% FBS and 1% P/S before use.
The cultured cells were centrifuged (1,000 rpm, 5 minutes) and washed with PBS. The size of cell lines and appropriate reaction concentration thereof were set and the cell lines were seeded in a 96-well plate at 1×10^5 to 10^6 cells/well (50 μL/well). […]

[1] = tested on: HDM-induced animal model (NC/Nga mice); assay: HDM-induced atopic dermatitis model (topical); assay type: in vivo
Experimental: After the back of the ears and neck of the NC/Nga mice was shaved with a razor, a proper amount of depilatory was applied and depilation was performed. After the depilatory was wiped out, about 100 mg of an atopic dermatitis-inducing reagent (Biostir, Japan) was uniformly applied to the back of the ears and neck using a micro pipette tip.
After hair removal was performed using a razor as needed, 150 μL of 4% SDS aqueous solution was uniformly applied to the back of the ears and neck using a micro pipette. After drying with cold air using a dryer, the solution was naturally dried for about two to three hours. About 100 mg of the AD-inducing reagent was uniformly applied to the back of the ears and neck using a micro pipette tip. All treatments were performed 11 times twice a week for a total of six weeks.
As a test material, an appropriate amount of phosphate in Compound 1 obtained according to Example 3 was weighed and then prepared by dissolving in a local vehicle (acetone:DMSO-7:1 v/v). At the time of preparation and administration, the test material was maintained in a light-shielding state, and was prepared and used every three days under the conditions of light-shielding refrigeration.
The administration of the test material was started from the time when the atopic score reached 2.1 to 2.3 points, and was directly applied to the center of the skin twice/day until the day of autopsy from the start date of administration of the test material (Day 0) for three weeks.
The AD-inducing material was applied and sensitized 24 hours before the autopsy, and the drug was administered and applied one hour before the autopsy. […]
To evaluate atopic dermatitis, evaluation of a skin clinical index (Matsuda et al., 1997) was performed from week 0 of the onset of atopic dermatitis. […] After that, the sum of the scores for each item was evaluated as a final grade.
An IgE concentration in blood was analyzed with serum obtained by centrifuging the blood collected on the day of autopsy, and IL-1B, IL-4, IL-13, TNF-α, IL-6, and IL-31 were analyzed using the extracted skin. […]

IC50 (JAK1, 2)	Compound	Atopic dermatitis-related cytokines ([1]; skin, FIG. 30)	Serum IgE levels ([1]; twice/day for three weeks, FIG. 29)	Skin severity scores (clinical atopic dermatitis score) ([1]; twice/day for three weeks, all dosed groups, FIG. 28)
18 nM	C[C@@H]1CN(C(=O)CC#N)CC=C1c1cc(NC(=O)C2CC2)nc2[nH]ccc12 [Compound 1, (S)—N-(4-(1-(2-cyanoacetyl)-3-methyl-1,2,3,6-tetrahydropyridin-4-yl)-1H-pyrrolo[2,3-b]pyridin-6-yl)cyclopropanecarboxamide]	decrease in atopic dermatitis-related cytokines	decreased compared to the control group	–
–	C[C@@H]1CN(C(=O)CC#N)CC=C1c1cc(NC(=O)C2CC2)nc2[nH]ccc12 [Example 3, (S)—N-(4-(1-(2-cyanoacetyl)-3-methyl-1,2,3,6-tetrahydropyridin-4-yl)-1H-pyrrolo[2,3-b]pyridin-6-yl)cyclopropanecarboxamide]	–	–	significantly reduced
